Source: US20170334899A1, “AMINO-SUBSTITUTED ISOTHIAZOLES” (Bayer Pharma Aktiengesellschaft, priority 2014, published 2017)

Target: T1, human kinase Mps-1 (Homo sapiens, UniProt P33981)
T1 construct: N-terminally GST-tagged human full length recombinant Mps-1 kinase; GST (N); purchased Invitrogen, Karslruhe, Germany PV4071
T1 sequence (P33981 1-857): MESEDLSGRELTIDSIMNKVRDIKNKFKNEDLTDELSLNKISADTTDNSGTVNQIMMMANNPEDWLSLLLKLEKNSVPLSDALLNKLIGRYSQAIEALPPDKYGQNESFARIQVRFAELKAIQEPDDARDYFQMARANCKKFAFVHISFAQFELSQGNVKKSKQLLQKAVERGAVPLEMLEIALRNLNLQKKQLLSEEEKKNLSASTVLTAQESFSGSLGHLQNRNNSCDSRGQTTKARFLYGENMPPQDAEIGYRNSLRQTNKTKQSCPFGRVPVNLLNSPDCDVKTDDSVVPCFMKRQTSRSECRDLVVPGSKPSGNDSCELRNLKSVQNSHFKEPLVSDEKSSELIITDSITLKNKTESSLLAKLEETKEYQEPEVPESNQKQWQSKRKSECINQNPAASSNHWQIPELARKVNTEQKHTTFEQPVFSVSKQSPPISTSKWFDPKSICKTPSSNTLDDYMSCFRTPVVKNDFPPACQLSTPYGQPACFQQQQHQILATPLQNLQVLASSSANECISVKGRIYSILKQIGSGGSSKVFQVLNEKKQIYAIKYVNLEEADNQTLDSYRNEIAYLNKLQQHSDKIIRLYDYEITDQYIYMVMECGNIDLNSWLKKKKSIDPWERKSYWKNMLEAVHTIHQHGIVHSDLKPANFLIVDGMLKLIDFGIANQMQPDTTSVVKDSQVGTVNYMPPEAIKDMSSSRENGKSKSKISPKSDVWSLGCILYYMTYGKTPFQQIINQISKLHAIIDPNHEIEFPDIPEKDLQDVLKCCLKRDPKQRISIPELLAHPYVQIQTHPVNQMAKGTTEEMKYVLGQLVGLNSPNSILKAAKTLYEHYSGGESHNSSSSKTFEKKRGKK
Experiment: Mps-1 kinase assay (TR-FRET)
Assay type: biochemical
Details: Mps-1 TR-FRET kinase assay; avg; read-out: Mps1 avg (IC50 [mol/l])
How it was run: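 GST-tagged full-length recombinant human Mps-1 (~0.5 nM) pre-incubated 15 min with compound, then reacted 60 min at 22 °C with 10 μM ATP and 1 μM biotinylated peptide in Hepes pH 7.7 buffer. EDTA-stopped; TR-FRET (Eu anti-phospho-Ser/Thr to SA-XLent) 665/620 nm ratio normalised to no-inhibitor and no-enzyme controls.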

IC50	Compound
> 20 µM	Cc1nsc(Nc2cncc(C(F)(F)F)n2)c1C(=O)Nc1ccc(F)c(OC2CCN(CCF)CC2)c1 [Example 269, N-(4-fluoro-3-{[1-(2-fluoroethyl)piperidin-4-yl]oxy}phenyl)-3-methyl-5-{[6-(trifluoromethyl)pyrazin-2-yl]amino}-1,2-thiazole-4-carboxamide]
> 20 µM	Cc1nsc(Nc2cnc(C(F)(F)F)cn2)c1C(=O)Nc1ccc(C(=O)NC2CN(CC(F)F)C2)cc1 [Example 271, N-(4-{[1-(2,2-difluoroethyl)azetidin-3-yl]carbamoyl}phenyl)-3-methyl-5-{[5-(trifluoromethyl)pyrazin-2-yl]amino}-1,2-thiazole-4-carboxamide]
> 20 µM	Cc1nsc(Nc2cnc3ccccc3n2)c1C(=O)Nc1cccc(C(=O)NC2CC2)c1 [Example 249, N-[3-(cyclopropylcarbamoyl)phenyl]-3-methyl-5-(quinoxalin-2-ylamino)-1,2-thiazole-4-carboxamide]
> 20 µM	Cc1nsc(Nc2cnc(C(F)(F)F)cn2)c1C(=O)Nc1ccc(OC2CCN(CC(F)F)C2)nc1 (stereo not shown) [Example 296, N-(6-{[1-(2,2-difluoroethyl)pyrrolidin-3-yl]oxy}pyridin-3-yl)-3-methyl-5-{[5-(trifluoromethyl)pyrazin-2-yl]amino}-1,2-thiazole-4-carboxamide]
> 20 µM	CCNC(=O)c1cccc(NC(=O)c2c(C)nsc2Nc2cnc3ccccc3n2)c1 [Example 251, N-[3-(ethylcarbamoyl)phenyl]-3-methyl-5-(quinoxalin-2-ylamino)-1,2-thiazole-4-carboxamide]
≥ 20 µM	Cc1nsc(Nc2cnc(C(F)(F)F)cn2)c1C(=O)Nc1ccc(F)c(OC2CCN(CC(F)(F)F)C2)c1 (stereo not shown) [Example 315, N-(4-fluoro-3-{[1-(2,2,2-trifluoroethyl)pyrrolidin-3-yl]oxy}phenyl)-3-methyl-5-{[5-(trifluoromethyl)pyrazin-2-yl]amino}-1,2-thiazole-4-carboxamide]
> 20 µM	Cc1nsc(Nc2cnc(C(F)(F)F)cn2)c1C(=O)Nc1cccc(NC(=O)OC(C)(C)C)c1 [Example 284, 3-tert-butyl (3-{[(3-methyl-5-{[5-(trifluoromethyl)pyrazin-2-yl]amino}-1,2-thiazol-4-yl)carbonyl]amino}phenyl)carbamate]
9 µM	Cc1nsc(Nc2cc(C#N)ccn2)c1C(=O)Nc1ccc(OC2CCNCC2)nc1 [Example 24, 5-[(4-Cyanopyridin-2-yl)amino]-3-methyl-N-[6-(piperidin-4-yloxy)pyridin-3-yl]-1,2-thiazole-4-carboxamide]
> 20 µM	Cc1nsc(Nc2cncc(C(F)(F)F)n2)c1C(=O)Nc1ccc(C(=O)N2CCN(CC(F)(F)F)CC2)cc1 [Example 272, 3-methyl-N-(4-{[4-(2,2,2-trifluoroethyl)piperazin-1-yl]carbonyl}phenyl)-5-{[6-(trifluoromethyl)pyrazin-2-yl]amino}-1,2-thiazole-4-carboxamide]
> 20 µM	Cc1nsc(Nc2cnc3ccccc3n2)c1C(=O)Nc1cccc(NS(=O)(=O)C2CN(CCC(F)(F)F)C2)c1 [Example 288, 3-methyl-5-(quinoxalin-2-ylamino)-N-[3-({[1-(3,3,3-trifluoropropyl)azetidin-3-yl]sulfonyl}amino)phenyl]-1,2-thiazole-4-carboxamide]
> 20 µM	CCN1CCN(C(=O)c2ccc(NC(=O)c3c(C)nsc3Nc3cncc(C(F)(F)F)n3)cc2)CC1 [Example 275, N-{4-[(4-ethylpiperazin-1-yl)carbonyl]phenyl}-3-methyl-5-{[6-(trifluoromethyl)pyrazin-2-yl]amino}-1,2-thiazole-4-carboxamide]
> 20 µM	Cc1nsc(Nc2cncc(C(F)(F)F)n2)c1C(=O)Nc1ccc(OC2CCN(CCC(F)(F)F)CC2)nc1 [Example 304, 3-methyl-5-{[6-(trifluoromethyl)pyrazin-2-yl]amino}-N-(6-{[1-(3,3,3-trifluoropropyl)piperidin-4-yl]oxy}pyridin-3-yl)-1,2-thiazole-4-carboxamide]
> 20 µM	Cc1nsc(Nc2cnc3ccccc3n2)c1C(=O)Nc1cccc(NS(=O)(=O)C2CCN(CC(F)(F)F)CC2)c1 [Example 281, 3-methyl-5-(quinoxalin-2-ylamino)-N-[3-({[1-(2,2,2-trifluoroethyl)piperidin-4-yl]sulfonyl}amino)phenyl]-1,2-thiazole-4-carboxamide]
> 20 µM	Cc1nsc(Nc2cnc(C(F)(F)F)cn2)c1C(=O)Nc1ccc(N(C)C)c(OCCCN(C)CCC(F)(F)F)c1 [Example 300, N-[4-(dimethylamino)-3-{3-[methyl(3,3,3-trifluoropropyl)amino]propoxy}phenyl]-3-methyl-5-{[5-(trifluoromethyl)pyrazin-2-yl]amino}-1,2-thiazole-4-carboxamide]
> 20 µM	Cc1nsc(Nc2cnc3ccccc3n2)c1C(=O)Nc1ccc(N2CCN(C(=O)OC(C)(C)C)CC2)nc1 [Example 248, tert-butyl 4-[5-({[3-methyl-5-(quinoxalin-2-ylamino)-1,2-thiazol-4-yl]carbonyl}amino)pyridin-2-yl]piperazine-1-carboxylate]

More lines, now with the values behind:

Compound	IC50
Cc1nsc(Nc2cncc(C(F)(F)F)n2)c1C(=O)Nc1ccc(F)c(OC2CCN(CC(F)F)CC2)c1 [Example 268, N-(3-{[1-(2,2-difluoroethyl)piperidin-4-yl]oxy}-4-fluorophenyl)-3-methyl-5-{[6-(trifluoromethyl)pyrazin-2-yl]amino}-1,2-thiazole-4-carboxamide]	> 20 µM
Cc1nsc(Nc2cnc3ccccc3n2)c1C(=O)Nc1cccc(NS(=O)(=O)C2CCN(CCC(F)(F)F)CC2)c1 [Example 283, 3-methyl-5-(quinoxalin-2-ylamino)-N-[3-({[1-(3,3,3-trifluoropropyl)piperidin-4-yl]sulfonyl}amino)phenyl]-1,2-thiazole-4-carboxamide]	> 20 µM
Cc1nsc(Nc2cnc(C(F)(F)F)cn2)c1C(=O)Nc1ccc(F)c(OCC2CCN(CCF)CC2)c1 [Example 309, N-(4-fluoro-3-{[1-(2-fluoroethyl)piperidin-4-yl]methoxy}phenyl)-3-methyl-5-{[5-(trifluoromethyl)pyrazin-2-yl]amino}-1,2-thiazole-4-carboxamide]	≥ 20 µM
Cc1nsc(Nc2cnc(C(F)(F)F)cn2)c1C(=O)Nc1ccc(OCCO)nc1 [Example 277, N-[6-(2-hydroxyethoxy)pyridin-3-yl]-3-methyl-5-{[5-(trifluoromethyl)pyrazin-2-yl]amino}-1,2-thiazole-4-carboxamide]	> 20 µM
Cc1nsc(Nc2cc(C#N)ccn2)c1C(=O)Nc1cccc(C(=O)NC(C)C)c1 [Example 254, 5-[(4-cyanopyridin-2-yl)amino]-N-[3-(isopropylcarbamoyl)phenyl]-3-methyl-1,2-thiazole-4-carboxamide]	> 20 µM
Cc1nsc(Nc2cnc(C(F)(F)F)cn2)c1C(=O)Nc1ccc(F)c(OCC2CCN(CC(F)F)CC2)c1 [Example 308, N-(3-{[1-(2,2-difluoroethyl)piperidin-4-yl]methoxy}-4-fluorophenyl)-3-methyl-5-{[5-(trifluoromethyl)pyrazin-2-yl]amino}-1,2-thiazole-4-carboxamide]	≥ 20 µM
Cc1nsc(Nc2cncc(C(F)(F)F)n2)c1C(=O)Nc1ccc(F)c(OC2CCN(CC(F)(F)F)CC2)c1 [Example 267, N-(4-fluoro-3-{[1-(2,2,2-trifluoroethyl)piperidin-4-yl]oxy}phenyl)-3-methyl-5-{[6-(trifluoromethyl)pyrazin-2-yl]amino}-1,2-thiazole-4-carboxamide]	> 20 µM
Cc1nsc(Nc2cnc3ccccc3n2)c1C(=O)Nc1cccc(NS(=O)(=O)C2CN(CCF)C2)c1 [Example 287, N-[3-({[1-(2-fluoroethyl)azetidin-3-yl]sulfonyl}amino)phenyl]-3-methyl-5-(quinoxalin-2-ylamino)-1,2-thiazole-4-carboxamide]	> 20 µM
COC(=O)CCCc1ccc(NC(=O)c2c(C)nsc2Nc2cc(C#N)ccn2)cc1 [Example 256, methyl 4-{4-[({5-[(4-cyanopyridin-2-yl)amino]-3-methyl-1,2-thiazol-4-yl}carbonyl)amino]phenyl}butanoate]	> 20 µM
Cc1nsc(Nc2cnc(C(F)(F)F)cn2)c1C(=O)Nc1ccc(F)c(OCC2CCN(CCC(F)(F)F)CC2)c1 [Example 311, N-(4-fluoro-3-{[1-(3,3,3-trifluoropropyl)piperidin-4-yl]methoxy}phenyl)-3-methyl-5-{[5-(trifluoromethyl)pyrazin-2-yl]amino}-1,2-thiazole-4-carboxamide]	> 20 µM
